What was measured:
cyprinus carpio = experiment: Three-hour sedation of carp with 30 ppm linalool; type: in vivo
Description: Three cyprinus carpio of 140 g average weight, each in a tank of 20 L water at 25° C., were exposed to linalool, added to each tank in a formulation containing 20 wt. % linalool, 5 wt. % Alkamuls 14/R (a non-ionic surfactant added as an emulsifier), 70 wt. % propylene glycol and 5 wt. % ethanol to a linalool concentration of 30 ppm in the water. Specimens were observed every 30 minutes after addition of linalool. […] After removal to a tank of untreated water, each of the fish returned to their initial state within five minutes.

Guppy fish = experiment: Anesthesia of guppy fish by linalool or Ho Wood oil added to tank water; type: in vivo
Description: (§1) A one year old koi fish of body length 11 cm and which appeared to be healthy was placed in a 4 liter tank containing water at 25° C. and in which the water was circulated by means of aeration. A liquid a mixture containing 1 wt. % synthetic linalool (1 wt. % linalool, 5 wt. % 14R, 2 wt. % AF80 and 92 wt. % water) was added to the tank and manually mixed with the water so that the concentration of linalool in the water was 50 ppm. This was regarding as the starting time of the experiment; thereafter, observations were made regularly to determine the behavior of the fish in water. This continued until no response to external stimulation and complete loss of equilibrium were observed, at which point the fish was transferred to a recovery tank containing fresh water. The fish was placed near the air pump, and the time until the fish again swam and responded normally to external stimulation was recorded.
To a one liter tank containing five guppy fingerlings 21-30 days old of weight 0.010-0.014 g and body length 0.5 cm in water at 30° C. and pH 7 was added a formulation containing 92.5% linalool. The formulation was added to the water to a linalool concentration of 50 ppm in the water. The fish became relaxed 5 minutes after addition of linalool and after 7 minutes were completely anesthetized. At 10 minutes the fish were removed to a recovery tank with fresh water. After two minutes in the recovery tank the fish resumed normal behavior.
The experiment of Example 21 was repeated, using four 10-month old Guppy fish of respective body lengths 3, 3.5, 4 and 3 cm, and adding the Ho Wood oil to a linalool concentration of 50 ppm in the water. […] At 14.5 minutes the fish were removed to a recovery tank with clean water. After two minutes in the recovery tank they swam around and appeared to have resumed normal activity.
The experiment of Example 21 was repeated, using four 10-month old Guppy fish of respective body lengths 4, 3.5, 3.5 and 3 cm, and adding the Ho Wood oil to a linalool concentration in the water of 75 ppm instead 50 ppm. […]

fish = experiment: Exposure of fish to linalool at different concentrations and times (survival, anesthesia); type: in vivo
Excerpt: As will be appreciated by persons skilled in the art, for a given type of aquatic organism of a given size, there is an inverse (though not necessarily linear) relationship between the concentration of linalool in the water and the amount of time the organism needs to be exposed to the linalool in order to achieve sedation or anesthetization, and similarly there is an inverse (though not necessarily linear) relationship between the linalool concentration and the amount of time an organism may be exposed to the linalool in order before death occurs. […] On the other hand, the same fish were unaffected by exposure to 25 ppm linalool, even for long periods of time.

goldfish = experiment: Anesthesia of goldfish by linalool or Ho Wood oil added to tank water; type: in vivo, Carassius auratus auratus
Description: as §1
The experiment of Example 1 was repeated, using a one year old goldfish of 8.5 cm body length. […] At 9.5 minutes the fish was removed to a recovery tank with clean water. Thereafter it recovered slowly and after 35 minutes was swimming around in the tank and appeared to have resumed normal activity.
The experiment of Example 1 was repeated, using a one year old goldfish of 8.5 cm body length, and adding the linalool formulation to a linalool concentration in the water of 75 ppm instead of 50 ppm. After 2 minutes of exposure to linalool the fish appeared to be in stress. […] At 20 minutes the fish was removed to a recovery tank with clean water. Thereafter it recovered slowly and after 35 minutes was swimming around in the tank and appeared to have resumed normal activity. […]
This example illustrates the effects of Linalool on Goldfish (cold water fish). The experiment was performed in a four liter tank with three 10-month old goldfish of respective weights 32 g, 30 g and 34 g and respective body lengths of 12.5 cm, 11.5 cm and 11 cm. The water temperature was 16° C. and the pH was 7. A formulation containing 1% Linalool was added to the water to a concentration of 50 ppm linalool in the water. The fish became relaxed 5 minutes after introduction of the linalool, and after 6 5 minutes there fish were completely anesthetized. After 20 minutes of exposure to linalool, the fish were removed to a recovery tank with fresh water. 15 minutes thereafter the fish had resumed normal behavior. […]
The experiment of Example 1 was repeated, using two one-year old goldfish of respective body lengths 8.5 and 7.5 cm and respective weights of 17 and 15 g, and adding the a natural source of linalool (Ho Wood oil) to a concentration of 75 ppm linalool instead of 50 ppm. […] At 4 minutes the fish were removed to a recovery tank with clean water. After 5 minutes in the recovery tank they swam around and appeared to have resumed normal activity.
The experiment of Example 21 was repeated, using two one-year old goldfish of respective body lengths 9 and 8 cm and respective weights 19 and 17.5 g, but adding Ho Wood oil to a linalool concentration of 50 ppm in the water. […] At 16.5 minutes the fish were removed to a recovery tank with clean water. After 4 minutes in the recovery tank they swam around and appeared to have resumed normal activity.

[1] = Example 17: five guppy fingerlings, 50 ppm linalool (formulation containing 92.5% linalool), 30° C., pH 7
[2] = Example 4: goldfish 8.5 cm, 50 ppm linalool in water
[3] = Example 5: goldfish 8.5 cm, 75 ppm linalool in water
[4] = Example 6: goldfish 8 cm, 100 ppm linalool in water
[5] = Example 11: three goldfish 25-27.5 g, 100 ppm linalool

For `C=CC(C)(O)CCC=C(C)C` (centres unmarked) [linalool], the “time in untreated water until return to initial state” value (cyprinus carpio; Example 28: carp 140 g, after three-hour exposure) was “five”, the “handling state of the fish” value (cyprinus carpio; Example 28: three carp 140 g, 25° C., at 30 minutes after exposure and for the duration of the three-hour exposure) was “easy to handle” and the “time after addition of linalool until fish became relaxed” value (Guppy fish; [1]) was 5 min. For the same compound, the “time until fish completely anesthetized” value (Guppy fish; [1]) was 7 min, the “time in recovery tank until normal behavior resumed” value (Guppy fish; Example 17: guppy fingerlings, 50 ppm linalool, removed at 10 minutes) was “two” and the effect of exposure (fish; fish exposed to 25 ppm linalool, even for long periods of time) was “unaffected”. For the same compound, the survival (fish; fish left for 40 minutes in 100 ppm linalool) was “did not survive”, the survival (fish; fish left for 50 minutes in 75 ppm linalool) was “did not survive” and the anesthesia (fish; fish left for five minutes in 100 ppm linalool) was “effectively anesthetized”. The “time of exposure until complete loss of equilibrium” value (goldfish; [2]) was 6.5 min, the “time of exposure until no response to external stimulation” value (“time of exposure until no response” below) (goldfish; [2]) was 9 min and the “time of exposure until partial loss of equilibrium” value (goldfish; [2]) was 5 min. The “time in recovery tank until normal activity resumed” value (goldfish; Example 4: goldfish 8.5 cm, 50 ppm linalool, removed to clean water at 9.5 minutes) was 35 min, the “time of exposure until complete loss of equilibrium” value (goldfish; [3]) was 5 min and the “time of exposure until no response” value (goldfish; [3]) was 9 min. For the same compound, the “time of exposure until partial loss of equilibrium” value (goldfish; [3]) was 2.5 min, the “time in recovery tank until normal activity resumed” value (goldfish; Example 5: goldfish 8.5 cm, 75 ppm linalool, removed to clean water at 20 minutes) was 35 min and the “time of exposure until complete loss of equilibrium” value (goldfish; [4]) was 2 min. The “time of exposure until no response” value (goldfish; [4]) was 3.5 min, the “time of exposure until partial loss of equilibrium” value (goldfish; [4]) was 1.5 min and the “time in recovery tank until normal activity resumed” value (goldfish; Example 6: goldfish 8 cm, 100 ppm linalool, removed to clean water at 4 minutes) was 35 min. The “mortality during a further three days of observation” value (goldfish; Example 7: three goldfish, average 12.5 cm, experiment of Example 1 repeated) was “no mortality occurred”, the “time in recovery tank until normal behavior resumed” value (goldfish; Example 9: goldfish, 50 ppm linalool, 16° C., removed after 20 minutes of exposure) was 15 min and the “time after introduction of linalool until fish became relaxed” value (goldfish; Example 9: three goldfish 30-34 g, 50 ppm linalool, 16° C., pH 7) was 5 min. The “time in recovery tank until normal behavior resumed” value (goldfish; Example 10: goldfish, 75 ppm linalool, 16° C., removed at 20 minutes) was 35 min, the “time until fish completely anesthetized” value (goldfish; Example 10: three goldfish 25-27 g, 75 ppm linalool, 16° C., pH 7) was 5 min and the “time in recovery tank until normal behavior resumed” value (goldfish; Example 11: goldfish, 100 ppm linalool, removed at 4 minutes) was 20 min. For the same compound, the “time after addition of linalool until fish became relaxed” value (goldfish; [5]) was 1.5 min and the “time until fish completely anesthetized” value (goldfish; [5]) was 2 min.

Reference: patent US20140259191A1, “FISH ANESTHETIC AND METHOD” (AQUA-MOR TECHNOLOGIES LTD., priority 2011, published 2014)
